# Results taken from ChEMBL document CHEMBL3991601, “The target landscape of clinical kinase drugs” (Science, 2017).
# Activity calls are given as the source filed them. For most assays here, no stated cut-off is given here; in the data, actives have a measured Kd and inactives only a lower limit.
# Tests used:
# [1] = target: Protein kinase C beta type (Homo sapiens, UniProt P05771)
# [2] = target: Tyrosine-protein kinase HCK (Homo sapiens, UniProt P08631)
# Insulin receptor = Insulin receptor (Homo sapiens, UniProt P06213)
# [3] = target: Putative heat shock protein HSP 90-beta 2 (Homo sapiens, UniProt Q58FF8)
# [4] = target: T1, Bone morphogenetic protein receptor type-2 (Homo sapiens, UniProt Q13873)
# T1 sequence (Q13873 whole entry): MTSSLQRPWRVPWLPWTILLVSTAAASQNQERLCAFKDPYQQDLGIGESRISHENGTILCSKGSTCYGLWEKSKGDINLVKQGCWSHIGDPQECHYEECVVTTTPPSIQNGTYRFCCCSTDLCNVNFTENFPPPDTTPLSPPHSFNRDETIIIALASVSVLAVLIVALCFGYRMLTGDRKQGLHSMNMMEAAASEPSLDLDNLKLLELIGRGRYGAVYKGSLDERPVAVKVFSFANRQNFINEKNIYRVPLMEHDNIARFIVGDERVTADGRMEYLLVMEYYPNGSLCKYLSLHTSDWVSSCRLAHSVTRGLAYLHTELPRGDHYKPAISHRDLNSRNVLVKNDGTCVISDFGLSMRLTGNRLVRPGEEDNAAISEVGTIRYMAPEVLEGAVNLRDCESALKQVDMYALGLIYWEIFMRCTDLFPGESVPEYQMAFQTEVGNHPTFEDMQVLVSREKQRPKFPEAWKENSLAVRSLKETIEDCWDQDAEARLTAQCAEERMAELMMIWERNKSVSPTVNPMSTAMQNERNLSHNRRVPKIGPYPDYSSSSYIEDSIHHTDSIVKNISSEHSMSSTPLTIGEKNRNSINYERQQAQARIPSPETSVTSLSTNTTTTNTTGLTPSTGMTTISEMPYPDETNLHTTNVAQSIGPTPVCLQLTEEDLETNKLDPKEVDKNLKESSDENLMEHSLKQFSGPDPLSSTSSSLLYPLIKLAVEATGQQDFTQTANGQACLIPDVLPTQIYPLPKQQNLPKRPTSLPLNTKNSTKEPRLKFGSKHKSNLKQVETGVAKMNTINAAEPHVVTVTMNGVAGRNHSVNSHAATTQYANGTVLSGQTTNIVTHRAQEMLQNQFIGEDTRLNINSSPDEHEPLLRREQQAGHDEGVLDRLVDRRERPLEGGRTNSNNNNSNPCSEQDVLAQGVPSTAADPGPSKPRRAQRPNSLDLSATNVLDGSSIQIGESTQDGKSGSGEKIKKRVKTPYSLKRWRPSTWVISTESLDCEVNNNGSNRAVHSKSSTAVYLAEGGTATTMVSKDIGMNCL
# [5] = target: cAMP-dependent protein kinase type II-alpha regulatory subunit (Homo sapiens, UniProt P13861)
# [6] = target: Rho-associated protein kinase 2 (Homo sapiens, UniProt O75116)
# [7] = target: T2, cGMP-dependent protein kinase 1 (Homo sapiens, UniProt Q13976)
# T2 sequence (Q13976 whole entry): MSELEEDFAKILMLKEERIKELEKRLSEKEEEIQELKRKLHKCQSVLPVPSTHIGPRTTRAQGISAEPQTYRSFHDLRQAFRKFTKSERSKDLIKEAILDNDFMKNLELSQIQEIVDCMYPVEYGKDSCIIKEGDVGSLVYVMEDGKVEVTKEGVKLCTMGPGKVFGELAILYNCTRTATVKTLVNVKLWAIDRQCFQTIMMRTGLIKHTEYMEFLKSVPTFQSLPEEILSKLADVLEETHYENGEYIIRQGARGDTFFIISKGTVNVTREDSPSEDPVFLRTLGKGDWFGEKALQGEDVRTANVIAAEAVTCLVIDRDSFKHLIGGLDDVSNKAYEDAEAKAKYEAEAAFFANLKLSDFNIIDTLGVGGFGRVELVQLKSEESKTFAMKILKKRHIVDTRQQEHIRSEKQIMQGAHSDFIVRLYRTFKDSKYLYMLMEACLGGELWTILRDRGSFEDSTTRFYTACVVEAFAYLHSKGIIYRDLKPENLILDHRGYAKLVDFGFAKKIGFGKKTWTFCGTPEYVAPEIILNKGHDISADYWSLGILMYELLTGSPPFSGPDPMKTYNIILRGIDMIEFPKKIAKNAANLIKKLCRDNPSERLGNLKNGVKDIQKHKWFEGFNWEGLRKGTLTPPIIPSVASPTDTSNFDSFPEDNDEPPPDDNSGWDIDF
# [8] = target: T3, Serine/threonine-protein kinase Nek9 (Homo sapiens, UniProt Q8TD19)
# T3 sequence (Q8TD19 whole entry): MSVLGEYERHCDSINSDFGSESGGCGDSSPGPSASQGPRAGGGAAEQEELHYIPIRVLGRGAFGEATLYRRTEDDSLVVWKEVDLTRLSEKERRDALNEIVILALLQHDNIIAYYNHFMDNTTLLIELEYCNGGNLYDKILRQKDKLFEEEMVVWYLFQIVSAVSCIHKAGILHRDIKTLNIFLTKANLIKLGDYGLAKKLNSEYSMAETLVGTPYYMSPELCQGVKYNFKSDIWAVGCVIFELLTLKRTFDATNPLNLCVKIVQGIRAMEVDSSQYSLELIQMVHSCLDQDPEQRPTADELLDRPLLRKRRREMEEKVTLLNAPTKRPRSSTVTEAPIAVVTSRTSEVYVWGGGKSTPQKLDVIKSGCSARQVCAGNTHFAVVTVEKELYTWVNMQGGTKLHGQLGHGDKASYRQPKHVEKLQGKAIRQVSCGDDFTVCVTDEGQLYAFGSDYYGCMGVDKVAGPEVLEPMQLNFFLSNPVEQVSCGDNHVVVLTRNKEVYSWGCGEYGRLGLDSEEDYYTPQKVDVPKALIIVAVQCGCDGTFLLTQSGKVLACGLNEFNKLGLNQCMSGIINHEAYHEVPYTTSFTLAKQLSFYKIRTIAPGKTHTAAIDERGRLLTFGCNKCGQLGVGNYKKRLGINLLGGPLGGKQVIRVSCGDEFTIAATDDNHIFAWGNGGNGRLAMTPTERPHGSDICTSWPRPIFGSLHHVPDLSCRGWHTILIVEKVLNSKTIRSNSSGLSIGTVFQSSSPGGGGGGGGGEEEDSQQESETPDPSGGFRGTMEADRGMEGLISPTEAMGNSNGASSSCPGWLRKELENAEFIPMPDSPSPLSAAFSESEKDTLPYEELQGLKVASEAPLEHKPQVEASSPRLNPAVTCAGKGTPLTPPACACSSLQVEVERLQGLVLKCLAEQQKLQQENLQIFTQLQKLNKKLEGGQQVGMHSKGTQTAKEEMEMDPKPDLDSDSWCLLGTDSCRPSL
# Chain of Tyrosine-protein kinase HCK (P08631 whole entry): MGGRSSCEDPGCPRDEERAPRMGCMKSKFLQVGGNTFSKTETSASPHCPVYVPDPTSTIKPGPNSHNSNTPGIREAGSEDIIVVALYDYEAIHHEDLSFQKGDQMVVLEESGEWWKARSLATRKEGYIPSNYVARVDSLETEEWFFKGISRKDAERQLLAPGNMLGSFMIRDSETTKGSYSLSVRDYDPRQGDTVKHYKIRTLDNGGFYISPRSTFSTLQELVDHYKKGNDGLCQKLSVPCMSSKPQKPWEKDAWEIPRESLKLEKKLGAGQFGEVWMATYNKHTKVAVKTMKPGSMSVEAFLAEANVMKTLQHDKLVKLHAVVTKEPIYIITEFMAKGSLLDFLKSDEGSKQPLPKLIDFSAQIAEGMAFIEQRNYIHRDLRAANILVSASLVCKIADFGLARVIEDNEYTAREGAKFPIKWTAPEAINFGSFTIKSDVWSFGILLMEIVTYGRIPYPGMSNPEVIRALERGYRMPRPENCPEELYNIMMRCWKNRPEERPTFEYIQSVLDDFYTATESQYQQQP
# Chain of Rho-associated protein kinase 2 (O75116 whole entry): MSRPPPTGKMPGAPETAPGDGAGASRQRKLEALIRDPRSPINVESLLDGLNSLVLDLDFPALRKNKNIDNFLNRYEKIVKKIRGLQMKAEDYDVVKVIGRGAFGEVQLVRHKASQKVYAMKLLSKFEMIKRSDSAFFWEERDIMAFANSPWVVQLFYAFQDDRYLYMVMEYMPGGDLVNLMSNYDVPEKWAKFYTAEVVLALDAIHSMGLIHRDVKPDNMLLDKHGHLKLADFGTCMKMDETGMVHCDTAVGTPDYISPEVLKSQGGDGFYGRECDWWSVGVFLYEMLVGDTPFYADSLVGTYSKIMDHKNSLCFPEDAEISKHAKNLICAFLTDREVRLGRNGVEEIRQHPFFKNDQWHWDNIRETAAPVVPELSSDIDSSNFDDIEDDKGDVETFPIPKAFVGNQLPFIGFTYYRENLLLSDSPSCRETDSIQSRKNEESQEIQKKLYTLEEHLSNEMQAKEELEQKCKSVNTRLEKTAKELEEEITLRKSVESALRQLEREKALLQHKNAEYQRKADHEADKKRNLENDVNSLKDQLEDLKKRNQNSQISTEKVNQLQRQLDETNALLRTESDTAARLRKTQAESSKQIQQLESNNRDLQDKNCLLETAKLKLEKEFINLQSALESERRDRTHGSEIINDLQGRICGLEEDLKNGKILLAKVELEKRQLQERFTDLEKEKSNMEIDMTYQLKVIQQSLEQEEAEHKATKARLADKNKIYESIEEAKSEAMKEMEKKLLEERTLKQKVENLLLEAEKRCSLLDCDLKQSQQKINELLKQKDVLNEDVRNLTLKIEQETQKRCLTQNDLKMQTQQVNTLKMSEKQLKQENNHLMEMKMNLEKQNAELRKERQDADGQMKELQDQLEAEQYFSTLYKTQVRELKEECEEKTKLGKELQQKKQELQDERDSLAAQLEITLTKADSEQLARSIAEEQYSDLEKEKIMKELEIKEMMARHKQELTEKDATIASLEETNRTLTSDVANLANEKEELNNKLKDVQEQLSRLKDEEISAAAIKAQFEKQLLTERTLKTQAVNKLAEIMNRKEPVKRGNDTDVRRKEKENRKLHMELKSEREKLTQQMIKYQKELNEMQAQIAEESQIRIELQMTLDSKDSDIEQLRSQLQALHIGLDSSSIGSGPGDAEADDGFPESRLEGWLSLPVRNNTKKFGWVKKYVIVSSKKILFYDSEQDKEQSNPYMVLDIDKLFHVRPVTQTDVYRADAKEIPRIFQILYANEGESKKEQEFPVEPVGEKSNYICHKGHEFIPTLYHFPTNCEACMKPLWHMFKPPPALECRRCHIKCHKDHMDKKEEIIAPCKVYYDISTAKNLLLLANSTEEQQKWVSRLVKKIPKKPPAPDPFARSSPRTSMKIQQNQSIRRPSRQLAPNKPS
# Chain of Protein kinase C beta type (P05771 whole entry): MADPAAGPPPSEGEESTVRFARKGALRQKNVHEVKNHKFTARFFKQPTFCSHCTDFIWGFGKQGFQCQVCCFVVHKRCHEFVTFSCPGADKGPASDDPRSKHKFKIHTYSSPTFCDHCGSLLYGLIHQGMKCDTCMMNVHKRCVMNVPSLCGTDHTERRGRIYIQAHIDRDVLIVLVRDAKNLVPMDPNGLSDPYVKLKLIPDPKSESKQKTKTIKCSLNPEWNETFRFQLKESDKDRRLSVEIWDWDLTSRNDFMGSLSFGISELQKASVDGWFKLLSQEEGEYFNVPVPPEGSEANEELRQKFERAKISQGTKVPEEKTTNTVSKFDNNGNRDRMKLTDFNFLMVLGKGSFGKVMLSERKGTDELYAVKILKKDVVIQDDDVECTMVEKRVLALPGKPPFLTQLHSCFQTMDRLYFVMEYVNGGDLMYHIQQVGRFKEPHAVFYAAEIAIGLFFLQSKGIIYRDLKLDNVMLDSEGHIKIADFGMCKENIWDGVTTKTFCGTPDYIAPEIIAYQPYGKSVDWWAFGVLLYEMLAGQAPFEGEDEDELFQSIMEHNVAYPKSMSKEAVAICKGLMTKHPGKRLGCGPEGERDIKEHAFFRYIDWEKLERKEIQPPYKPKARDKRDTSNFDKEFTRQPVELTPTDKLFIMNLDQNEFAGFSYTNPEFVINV
# Chain of Insulin receptor (P06213 28-758 limits assumed): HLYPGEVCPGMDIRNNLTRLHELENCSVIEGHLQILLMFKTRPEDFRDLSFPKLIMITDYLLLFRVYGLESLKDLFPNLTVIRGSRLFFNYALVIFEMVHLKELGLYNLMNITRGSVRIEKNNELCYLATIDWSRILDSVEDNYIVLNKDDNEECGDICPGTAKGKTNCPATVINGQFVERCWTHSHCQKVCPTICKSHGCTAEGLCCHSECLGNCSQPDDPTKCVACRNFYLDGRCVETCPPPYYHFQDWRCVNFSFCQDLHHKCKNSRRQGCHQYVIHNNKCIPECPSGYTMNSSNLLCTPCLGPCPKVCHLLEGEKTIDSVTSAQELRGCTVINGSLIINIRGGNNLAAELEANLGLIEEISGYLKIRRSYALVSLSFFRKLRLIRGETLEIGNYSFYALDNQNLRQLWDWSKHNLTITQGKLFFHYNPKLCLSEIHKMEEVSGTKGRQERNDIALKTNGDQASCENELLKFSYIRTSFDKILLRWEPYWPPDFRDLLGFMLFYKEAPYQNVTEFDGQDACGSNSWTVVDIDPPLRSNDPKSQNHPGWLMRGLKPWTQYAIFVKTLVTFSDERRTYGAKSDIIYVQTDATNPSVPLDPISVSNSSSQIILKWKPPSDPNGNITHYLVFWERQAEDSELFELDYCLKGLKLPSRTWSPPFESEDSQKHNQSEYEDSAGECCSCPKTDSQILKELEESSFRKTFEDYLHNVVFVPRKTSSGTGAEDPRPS
# Chain of Insulin receptor (P06213 763-1382 limits assumed): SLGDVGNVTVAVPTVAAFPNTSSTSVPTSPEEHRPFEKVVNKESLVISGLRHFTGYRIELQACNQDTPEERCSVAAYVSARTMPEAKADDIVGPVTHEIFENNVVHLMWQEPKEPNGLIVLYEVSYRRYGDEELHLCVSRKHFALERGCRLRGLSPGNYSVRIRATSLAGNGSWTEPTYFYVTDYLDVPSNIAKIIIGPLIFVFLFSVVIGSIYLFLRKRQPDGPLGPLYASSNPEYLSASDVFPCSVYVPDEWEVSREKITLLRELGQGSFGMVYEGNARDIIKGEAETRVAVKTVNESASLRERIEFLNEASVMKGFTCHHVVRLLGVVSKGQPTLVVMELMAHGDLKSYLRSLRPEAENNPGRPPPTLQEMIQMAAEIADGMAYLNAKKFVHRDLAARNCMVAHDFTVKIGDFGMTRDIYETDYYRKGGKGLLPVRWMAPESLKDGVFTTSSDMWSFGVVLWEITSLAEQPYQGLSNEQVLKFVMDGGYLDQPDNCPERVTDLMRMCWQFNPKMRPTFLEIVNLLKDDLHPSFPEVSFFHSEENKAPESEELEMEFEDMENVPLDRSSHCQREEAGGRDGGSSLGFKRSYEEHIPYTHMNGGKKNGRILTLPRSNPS
# Chain of Putative heat shock protein HSP 90-beta 2 (Q58FF8 whole entry): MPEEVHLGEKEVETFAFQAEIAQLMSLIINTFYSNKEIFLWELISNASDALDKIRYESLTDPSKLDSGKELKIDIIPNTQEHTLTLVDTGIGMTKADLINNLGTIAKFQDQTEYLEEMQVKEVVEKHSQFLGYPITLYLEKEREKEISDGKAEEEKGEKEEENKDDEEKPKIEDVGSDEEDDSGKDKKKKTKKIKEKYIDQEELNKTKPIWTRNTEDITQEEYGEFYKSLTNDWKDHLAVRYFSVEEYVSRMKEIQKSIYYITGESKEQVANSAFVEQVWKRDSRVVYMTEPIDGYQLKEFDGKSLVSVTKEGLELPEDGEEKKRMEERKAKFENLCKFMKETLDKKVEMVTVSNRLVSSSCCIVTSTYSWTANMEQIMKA
# Chain of cAMP-dependent protein kinase type II-alpha regulatory subunit (P13861 whole entry): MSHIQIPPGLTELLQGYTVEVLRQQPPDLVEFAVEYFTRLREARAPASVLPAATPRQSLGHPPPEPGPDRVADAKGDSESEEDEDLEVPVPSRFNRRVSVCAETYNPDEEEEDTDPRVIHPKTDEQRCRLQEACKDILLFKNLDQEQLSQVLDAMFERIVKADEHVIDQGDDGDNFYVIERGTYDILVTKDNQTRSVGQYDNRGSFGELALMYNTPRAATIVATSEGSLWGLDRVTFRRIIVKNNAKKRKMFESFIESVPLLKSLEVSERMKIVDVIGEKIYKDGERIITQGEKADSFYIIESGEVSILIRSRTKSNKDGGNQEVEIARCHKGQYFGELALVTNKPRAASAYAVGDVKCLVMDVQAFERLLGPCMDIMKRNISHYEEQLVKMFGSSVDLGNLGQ
Compound,Kd [1],Kd [2],Kd (Insulin receptor),Kd [3],Kd [4],Kd [5],Kd [6],Kd [7],Kd [8]
O=C(Nc1ccc(-c2ccnc(Nc3ccc(N4CCOCC4)cc3)n2)cc1)C1CCCN1 (stereo not given) [XL-019],> 30 µM (inactive),> 30 µM (inactive),> 30 µM (inactive),> 30 µM (inactive),> 30 µM (inactive),> 30 µM (inactive),3.97 µM (active),> 30 µM (inactive),2.19 µM (active)
CCn1c(=O)c(-c2cc[nH]n2)cc2c(C)nc(N)nc21 [VOXTALISIB],> 30 µM (inactive),> 30 µM (inactive),> 30 µM (inactive),> 30 µM (inactive),> 30 µM (inactive),> 30 µM (inactive),> 30 µM (inactive),> 30 µM (inactive),> 30 µM (inactive)
Cc1ccc(NC(=O)c2ccc(CN3CC[C@H](N(C)C)C3)c(C(F)(F)F)c2)cc1Nc1nccc(-c2cncnc2)n1 [BAFETINIB],> 30 µM (inactive),> 30 µM (inactive),> 30 µM (inactive),> 30 µM (inactive),> 30 µM (inactive),> 30 µM (inactive),> 30 µM (inactive),> 30 µM (inactive),> 30 µM (inactive)
COc1ccc(-c2ccc3c(N4CCOC[C@@H]4C)nc(N4CCOC[C@@H]4C)nc3n2)cc1CO [AZD-8055],> 30 µM (inactive),> 30 µM (inactive),> 30 µM (inactive),> 30 µM (inactive),> 30 µM (inactive),> 30 µM (inactive),> 30 µM (inactive),> 30 µM (inactive),> 30 µM (inactive)
N[C@@H]1CCCN(c2c(/C=C3\SC(=O)NC3=O)cccc2-c2ccccc2)C1,> 30 µM (inactive),> 30 µM (inactive),> 30 µM (inactive),> 30 µM (inactive),> 30 µM (inactive),> 30 µM (inactive),> 30 µM (inactive),> 30 µM (inactive),> 30 µM (inactive)
CNC(=O)CN1CCC(Oc2cc3c(Nc4cccc(Cl)c4F)ncnc3cc2OC)CC1 [SAPITINIB],> 30 µM (inactive),> 30 µM (inactive),> 30 µM (inactive),> 30 µM (inactive),> 30 µM (inactive),> 30 µM (inactive),> 30 µM (inactive),> 30 µM (inactive),> 30 µM (inactive)
COc1cc(CCc2cc(NC(=O)c3ccc(N4C[C@@H](C)N[C@@H](C)C4)cc3)n[nH]2)cc(OC)c1 [AZD-4547],> 30 µM (inactive),> 30 µM (inactive),> 30 µM (inactive),> 30 µM (inactive),> 30 µM (inactive),> 30 µM (inactive),> 30 µM (inactive),> 30 µM (inactive),> 30 µM (inactive)
COCCNCc1ccc(-c2cc3nccc(Oc4ccc(NC(=S)NC(=O)Cc5ccc(F)cc5)cc4F)c3s2)nc1 [GLESATINIB],> 30 µM (inactive),0.283 µM (active),> 30 µM (inactive),> 30 µM (inactive),> 30 µM (inactive),> 30 µM (inactive),> 30 µM (inactive),> 30 µM (inactive),> 30 µM (inactive)
CCN1CCN(Cc2ccc(-c3cc4c(N[C@H](C)c5ccccc5)ncnc4[nH]3)cc2)CC1 [AEE-788],> 30 µM (inactive),> 30 µM (inactive),> 30 µM (inactive),> 30 µM (inactive),> 30 µM (inactive),> 30 µM (inactive),> 30 µM (inactive),> 30 µM (inactive),> 30 µM (inactive)
CN1CC[C@@H](c2c(O)cc(O)c3c(=O)cc(-c4ccccc4Cl)oc23)[C@@H]1CO,> 30 µM (inactive),> 30 µM (inactive),> 30 µM (inactive),> 30 µM (inactive),> 30 µM (inactive),> 30 µM (inactive),> 30 µM (inactive),> 30 µM (inactive),> 30 µM (inactive)
COc1cc(OC)c(/C=C/S(=O)(=O)Cc2ccc(OC)c(NCC(=O)O)c2)c(OC)c1 [RIGOSERTIB],> 30 µM (inactive),> 30 µM (inactive),> 30 µM (inactive),> 30 µM (inactive),> 30 µM (inactive),> 30 µM (inactive),> 30 µM (inactive),> 30 µM (inactive),> 30 µM (inactive)
C1=C/COCc2cc(ccc2OCCN2CCCC2)Nc2nccc(n2)-c2cccc(c2)COC/1 [PACRITINIB],7.24 µM (active),> 30 µM (inactive),> 30 µM (inactive),> 30 µM (inactive),> 30 µM (inactive),> 30 µM (inactive),> 30 µM (inactive),1.52 µM (active),1.78 µM (active)
COc1cc2nccc(Oc3ccc(NC(=O)Nc4cc(C)on4)c(Cl)c3)c2cc1OC [TIVOZANIB],> 30 µM (inactive),> 30 µM (inactive),> 30 µM (inactive),> 30 µM (inactive),> 30 µM (inactive),> 30 µM (inactive),> 30 µM (inactive),> 30 µM (inactive),> 30 µM (inactive)
CNC(=O)c1ccc(-c2cnc3ncc(Cc4ccc5ncccc5c4)n3n2)cc1F [CAPMATINIB],> 30 µM (inactive),> 30 µM (inactive),> 30 µM (inactive),> 30 µM (inactive),> 30 µM (inactive),> 30 µM (inactive),> 30 µM (inactive),> 30 µM (inactive),> 30 µM (inactive)
C[C@@H](c1ccc2nccn2c1)n1nnc2ncc(-c3cnn(C)c3)nc21 [SAVOLITINIB],> 30 µM (inactive),> 30 µM (inactive),> 30 µM (inactive),> 30 µM (inactive),> 30 µM (inactive),> 30 µM (inactive),> 30 µM (inactive),> 30 µM (inactive),> 30 µM (inactive)
